# Measured values from paper PMC2782546 (Chemical biology & drug design, 2009).
# Where two headings read alike, the source gives them in different places. The star is where a group is joined. Lys(Fam) = Lys(Fam): lysine whose ε-amino group carries Fam (fluorescein), added using fluorescein-5-isothiocyanate; Dnp = O=[N+]([O-])c1ccc(*)c([N+](=O)[O-])c1; Mca = COc1ccc2c(CC(=O)*)cc(=O)oc2c1
# Columns and labels:
# ADAMTS-5 [1] = target: T1, ADAMTS-5 (Homo sapiens, UniProt Q9UNA0); experiment: ADAMTS-5 inhibition assay, FRET substrate hydrolysis; type: biochemical
# T1 sequence (Q9UNA0 262-731 limits assumed): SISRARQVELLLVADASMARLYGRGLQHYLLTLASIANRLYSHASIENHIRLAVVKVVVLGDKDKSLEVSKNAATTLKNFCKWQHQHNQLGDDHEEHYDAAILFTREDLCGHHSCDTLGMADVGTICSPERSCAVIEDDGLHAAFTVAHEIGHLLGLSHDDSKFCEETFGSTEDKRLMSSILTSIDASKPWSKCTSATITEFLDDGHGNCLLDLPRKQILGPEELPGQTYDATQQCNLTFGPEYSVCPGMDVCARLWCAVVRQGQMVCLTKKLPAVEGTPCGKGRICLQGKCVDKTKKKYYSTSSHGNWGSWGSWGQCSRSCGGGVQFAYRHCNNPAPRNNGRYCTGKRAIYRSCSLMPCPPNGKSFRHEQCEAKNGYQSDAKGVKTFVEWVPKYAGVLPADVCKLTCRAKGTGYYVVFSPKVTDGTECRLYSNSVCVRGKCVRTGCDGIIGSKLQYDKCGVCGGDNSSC
# ADAMTS-5 [2] = target: T1, ADAMTS-5; experiment: ADAMTS-5 inhibition, RP-HPLC analysis of cleavage products; type: biochemical; conditions: ADAMTS-5, data not shown
# MMP-2 [3] = target: T2, MMP-2 (Homo sapiens, UniProt P08253); experiment: MMP-2 inhibition assay with FRET substrates; type: biochemical
# T2 sequence (P08253 110-660): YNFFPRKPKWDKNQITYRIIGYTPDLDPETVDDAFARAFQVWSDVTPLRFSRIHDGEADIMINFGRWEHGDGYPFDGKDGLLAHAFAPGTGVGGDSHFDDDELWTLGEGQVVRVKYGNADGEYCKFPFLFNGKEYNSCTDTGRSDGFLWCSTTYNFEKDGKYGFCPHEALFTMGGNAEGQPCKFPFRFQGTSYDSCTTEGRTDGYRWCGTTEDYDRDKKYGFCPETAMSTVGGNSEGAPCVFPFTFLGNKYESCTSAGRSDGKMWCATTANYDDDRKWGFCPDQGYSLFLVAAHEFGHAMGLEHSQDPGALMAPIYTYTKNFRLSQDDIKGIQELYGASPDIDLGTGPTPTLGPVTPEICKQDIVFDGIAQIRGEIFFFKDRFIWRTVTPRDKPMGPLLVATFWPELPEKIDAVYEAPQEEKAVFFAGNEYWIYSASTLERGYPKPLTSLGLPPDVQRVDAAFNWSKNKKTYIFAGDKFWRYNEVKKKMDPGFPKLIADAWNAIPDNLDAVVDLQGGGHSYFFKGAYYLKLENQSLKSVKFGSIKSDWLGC
# MMP-8 [4] = target: T3, MMP-8 (Homo sapiens, UniProt P22894); experiment: MMP-8 inhibition assay with FRET substrates; type: biochemical
# MMP-9 [5] = target: T4, MMP-9 (Homo sapiens, UniProt P14780); experiment: MMP-9 inhibition assay with FRET substrates; type: biochemical; conditions: MMP-9, substrate fMMPSlong
# MMP-12 [6] = target: T5, MMP-12 (Homo sapiens, UniProt P39900); experiment: MMP-12 inhibition assay with FRET substrates; type: biochemical; conditions: MMP-12, substrate fMMPSshort
# MMP-2 [7] = target: T2, MMP-2; conditions: cited from earlier work
# MMP-1 [8] = conditions: cited from earlier work
# ADAMTS-4 (aggrecanase-1) [9] = target: T6, ADAMTS-4 (aggrecanase-1) (Homo sapiens, UniProt O75173); experiment: ADAMTS-4 inhibition assay, FRET substrate hydrolysis; type: biochemical
# T6 sequence (O75173 213-685 limits assumed): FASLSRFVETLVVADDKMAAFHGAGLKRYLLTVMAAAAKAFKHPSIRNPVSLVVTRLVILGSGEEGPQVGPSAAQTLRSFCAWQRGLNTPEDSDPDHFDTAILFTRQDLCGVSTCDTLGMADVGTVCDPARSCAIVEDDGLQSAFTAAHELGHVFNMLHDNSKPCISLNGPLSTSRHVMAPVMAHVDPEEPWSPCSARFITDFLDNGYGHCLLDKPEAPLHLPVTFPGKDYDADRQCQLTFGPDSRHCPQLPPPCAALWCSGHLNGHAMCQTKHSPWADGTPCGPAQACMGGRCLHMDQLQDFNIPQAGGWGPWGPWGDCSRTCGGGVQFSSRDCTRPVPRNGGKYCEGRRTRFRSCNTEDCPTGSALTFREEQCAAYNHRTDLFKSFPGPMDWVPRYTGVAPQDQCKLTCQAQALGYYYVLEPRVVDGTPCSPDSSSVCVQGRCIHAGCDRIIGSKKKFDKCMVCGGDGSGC
# ADAMTS-4 (aggrecanase-1) [10] = target: T6, ADAMTS-4 (aggrecanase-1); experiment: ADAMTS-4 inhibition, RP-HPLC analysis of cleavage products
# MMP-9 [11] = target: T4, MMP-9; conditions: cited from earlier work
# MMP-8 [12] = target: T3, MMP-8; conditions: read-out: KM value for MMP hydrolysis; cited from earlier work
# MMP-2 [13] = target: T2, MMP-2; conditions: read-out: KM value for MMP hydrolysis; cited from earlier work
# ADAMTS-4 [14] = conditions: ADAMTS-4 aggrecanase activity; cited from earlier work
# ADAMTS-1 = ADAMTS-1 aggrecanase activity; cited from earlier work
# MMP-1 [15] = conditions: MMP-1, inhibitor concentration 50 μM; cited from earlier work
# MMP-13 = conditions: MMP-13, inhibitor concentration 50 μM; cited from earlier work
# ADAM-10 = conditions: ADAM-10, inhibitor concentration 50 μM; cited from earlier work
# MMP-2 [16] = target: T2, MMP-2; conditions: cited from earlier work; remark: listed apart in the source
# MMP-7 = conditions: cited from earlier work
# MMP-9 [17] = target: T4, MMP-9; conditions: cited from earlier work; remark: listed apart in the source
# MT1-MMP = conditions: cited from earlier work
# ADAMTS-4 [18] = conditions: read-out: KM value for ADAMTS-4 hydrolysis; substrate kinetics; cited from earlier work
# MMP-9 [19] = target: T4, MMP-9; conditions: read-out: KM value for MMP hydrolysis; cited from earlier work
# MMP-12 [20] = target: T5, MMP-12; conditions: read-out: KM value for MMP hydrolysis; cited from earlier work
# T4 sequence (P14780 94-707, species assumed): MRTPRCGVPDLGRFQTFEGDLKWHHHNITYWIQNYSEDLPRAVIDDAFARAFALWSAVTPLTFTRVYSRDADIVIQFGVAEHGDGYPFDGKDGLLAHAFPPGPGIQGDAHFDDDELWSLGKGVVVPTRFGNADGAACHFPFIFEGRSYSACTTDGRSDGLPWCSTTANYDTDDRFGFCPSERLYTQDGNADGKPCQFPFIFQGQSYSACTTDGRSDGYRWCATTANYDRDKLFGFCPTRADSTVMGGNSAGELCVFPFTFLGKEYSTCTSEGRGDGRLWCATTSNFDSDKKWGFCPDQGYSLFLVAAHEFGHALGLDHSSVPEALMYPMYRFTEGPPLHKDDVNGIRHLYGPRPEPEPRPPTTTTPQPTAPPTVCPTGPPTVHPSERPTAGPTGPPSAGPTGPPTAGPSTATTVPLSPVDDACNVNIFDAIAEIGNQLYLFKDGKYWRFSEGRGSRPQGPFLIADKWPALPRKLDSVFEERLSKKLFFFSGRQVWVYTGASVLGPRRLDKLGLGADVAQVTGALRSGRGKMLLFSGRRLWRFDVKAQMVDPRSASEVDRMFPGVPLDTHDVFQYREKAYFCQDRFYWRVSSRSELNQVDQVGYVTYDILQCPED
# T5 sequence (P39900 106-470, species assumed): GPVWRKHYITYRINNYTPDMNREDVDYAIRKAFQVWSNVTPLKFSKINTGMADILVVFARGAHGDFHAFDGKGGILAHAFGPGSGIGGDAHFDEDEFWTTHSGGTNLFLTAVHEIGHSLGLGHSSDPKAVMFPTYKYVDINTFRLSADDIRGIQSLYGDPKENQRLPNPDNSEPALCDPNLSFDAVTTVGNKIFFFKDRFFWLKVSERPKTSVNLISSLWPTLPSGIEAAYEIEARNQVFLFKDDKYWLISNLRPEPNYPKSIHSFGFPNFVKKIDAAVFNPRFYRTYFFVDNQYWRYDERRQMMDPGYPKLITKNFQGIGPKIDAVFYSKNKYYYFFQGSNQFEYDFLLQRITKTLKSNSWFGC
# T3 sequence (P22894 101-467, species assumed): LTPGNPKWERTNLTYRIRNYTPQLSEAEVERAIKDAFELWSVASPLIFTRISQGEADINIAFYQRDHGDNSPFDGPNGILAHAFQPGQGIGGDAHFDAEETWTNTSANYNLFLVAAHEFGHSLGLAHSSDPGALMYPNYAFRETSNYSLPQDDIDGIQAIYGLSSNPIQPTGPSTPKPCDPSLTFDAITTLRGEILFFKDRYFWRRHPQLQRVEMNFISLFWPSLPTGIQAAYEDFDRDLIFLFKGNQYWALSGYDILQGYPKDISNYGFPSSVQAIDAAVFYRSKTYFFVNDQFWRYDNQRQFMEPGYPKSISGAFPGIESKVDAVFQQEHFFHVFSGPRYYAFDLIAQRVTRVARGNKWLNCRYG
molecule,measurement,setting,value
"Oc1cccc(O)c1O [Compound 10, 1,2,3-trihydroxybenzene]",inhibition of substrate hydrolysis by fluorescence analysis,"ADAMTS-5 [1]; ADAMTS-5, data not shown",inhibited
same,Ki,"ADAMTS-5 [1]; Ki, ADAMTS-5, substrate fTSSshort, apparent Ki",36.9 ± 8.82 µM
same,inhibition of substrate hydrolysis by RP-HPLC analysis,ADAMTS-5 [2],inhibited
same,Ki,"MMP-2 [3]; MMP-2, substrate fMMPSshort",11.3 ± 0.52 µM
same,Ki,MMP-8 [4],10.3 ± 0.94 µM
same,Ki,MMP-9 [5],8.29 ± 0.63 µM
same,Ki,MMP-12 [6],34.4 ± 3.99 µM
O=c1cc(-c2ccc(O)cc2)oc2cc(O)cc(O)c12 [apigenin],EC50,MMP-2 [7],7.5 µM
same,IC50,MMP-1 [8],> 100 µM
"COc1ccc(/C=C/c2cc(O)cc(OC3OC(CO)C(O)C(O)C3O)c2)cc1 (stereo not shown) [Compound 7, 2-[3-hydroxy-5-[(E)-2-(4-methoxyphenyl)ethenyl]phenoxy]-6-(hydroxymethyl)oxane-3,4,5-triol]",IC50,ADAMTS-4 (aggrecanase-1) [9],20 µM
same,IC50,ADAMTS-4 (aggrecanase-1) [10],> 100 µM
O=c1cc(-c2ccc(O)c(O)c2)oc2cc(O)cc(O)c12 [luteolin],Ki,"MMP-9 [11]; MMP-9, noncompetitive mechanism",5.4 µM
(Gly-Pro-Hyp)5-Gly-Pro-Lys(Mca)-Gly-Pro-Gln-Gly~Leu-Arg-Gly-Gln-Lys(Dnp)-Gly-Val-Arg-(Gly-Pro-Hyp)5-NH2 [fMMPSlong],Km,MMP-8 [12],7.6 µM
same,Km,MMP-2 [13],17.2 µM
O=c1c(O)c(-c2ccc(O)cc2)oc2cc(O)cc(O)c12 [kaempferol],IC50,MMP-1 [8],43.7 µM
"C(=C\c1ccccc1)/c1ccccc1 [Compound 5, trans-1,2-diphenylethylene]",IC50,ADAMTS-4 (aggrecanase-1) [9],> 100 µM
same,IC50,ADAMTS-4 (aggrecanase-1) [10],> 100 µM
"Oc1ccccc1O [Compound 9, 1,2-dihydroxybenzene]",IC50,ADAMTS-4 (aggrecanase-1) [9],20 µM
same,IC50,ADAMTS-4 (aggrecanase-1) [10],> 100 µM
"O=C(O[C@@H]1Cc2c(O)cc(O)cc2O[C@@H]1c1ccc(O)c(O)c1)c1cc(O)c(O)c(O)c1 [Compound 2, (−)-epicatechin gallate]",IC50,ADAMTS-4 [14],0.1 to 0.15 µM
same,IC50,ADAMTS-1,0.2 to 0.25 µM
same,inhibition,MMP-1 [15],14–30%
same,inhibition,MMP-13,14–30%
same,inhibition,ADAM-10,14–30%
"O=C(O[C@@H]1Cc2c(O)cc(O)cc2O[C@@H]1c1cc(O)c(O)c(O)c1)c1cc(O)c(O)c(O)c1 [Compound 1, (−)-epigallocatechin gallate]",IC50,ADAMTS-4 [14],0.1 to 0.15 µM
same,IC50,ADAMTS-1,0.2 to 0.25 µM
same,IC50,MMP-2 [16]; MMP-2,6 to 8 µM
same,IC50,MMP-7,1.6 µM
same,IC50,MMP-9 [17]; MMP-9,0.8 to 13 µM
same,IC50,MT1-MMP,0.019 µM
same,inhibition,MMP-1 [15],14–30%
same,inhibition,MMP-13,14–30%
same,inhibition,ADAM-10,14–30%
Lys(Fam)-Asp-Val-Gln-Glu-Phe-Arg-Gly-Val-Thr-Ala-Val-Ile-Arg-Lys(Tamra)-Lys-Gly-Lys-NH2 ({Lys(Fam)}-DVQEFRGVTAVIRK(Tamra)KGK-NH2) [fTSS1],Km,ADAMTS-4 [18],~35 µM
"Oc1cc(O)cc(/C=C/c2ccc(O)c(O)c2)c1 [Compound 3, (E)-4-[2-(3,5-dihydroxyphenyl)ethenyl]1,2-benzediol]",inhibition of substrate hydrolysis by RP-HPLC analysis,ADAMTS-5 [2],inhibited
same,Ki,"MMP-2 [3]; MMP-2, substrate fMMPSlong",10 ± 0.89 µM
same,Ki,"MMP-2 [3]; MMP-2, substrate fMMPSshort",12.2 ± 1.82 µM
"COc1ccc(C=Cc2cc(O)cc(OC3OC(CO)C(O)C(O)C3O)c2)cc1O (stereo not shown) [Compound 8, 2-[3-hydroxy-5-[2-(3-hydroxy-4-methoxyphenyl)ethenyl]phenoxy]-6-(hydroxymethyl)oxane-3,4,5-triol]",IC50,ADAMTS-4 (aggrecanase-1) [9],50 µM
same,IC50,ADAMTS-4 (aggrecanase-1) [10],> 100 µM
O=c1c(O)c(-c2ccc(O)c(O)c2)oc2cc(O)cc(O)c12 [quercetin],IC50,MMP-1 [8],39.6 µM
"Oc1ccc(/C=C/c2cc(O)cc(O)c2)cc1 [Compound 4, 5-[(1E)-2-(4-hydroxyphenyl)ethenyl]-1,3-benzenediol]",IC50,ADAMTS-4 (aggrecanase-1) [9],50 µM
same,inhibition of MMP-2,MMP-2 [16]; prior study,not an inhibitor
same,inhibition of MMP-9,MMP-9 [17]; prior study,not an inhibitor
same,IC50,ADAMTS-4 (aggrecanase-1) [10],> 100 µM
"C(=C/c1ccccc1)/c1ccccc1 [Compound 6, cis-1,2-diphenylethylene]",IC50,ADAMTS-4 (aggrecanase-1) [9],~100 µM
same,IC50,ADAMTS-4 (aggrecanase-1) [10],> 100 µM
Mca-Lys-Pro-Leu-Gly-Leu-Lys(Dnp)-Ala-Arg-NH2 (Mca-KPLGLK(Dnp)AR-NH2; SMILES COc1ccc2c(CC(=O)N[C@@H](CCCCN)C(=O)N3CCC[C@H]3C(=O)N[C@@H](CC(C)C)C(=O)NCC(=O)N[C@@H](CC(C)C)C(=O)N[C@@H](CCCCNc3ccc([N+](=O)[O-])cc3[N+](=O)[O-])C(=O)N[C@@H](C)C(=O)N[C@@H](CCCNC(=N)N)C(N)=O)cc(=O)oc2c1) [fMMPSshort],Km,MMP-9 [19],27.7 µM
same,Km,MMP-12 [20],130 µM
O=c1cc(-c2ccc(O)c(O)c2)oc2cc(O[C@@H]3O[C@H](CO)[C@@H](O)[C@H](O)[C@H]3O)cc(O)c12 [luteolin-7-O-glucoside],EC50,MMP-9 [11]; MMP-9,4.6 µM
